The text below walks through data of patent publication US6933308B2 (Bristol-Myers Squibb Company, priority 2002, dated 2005).

The subject of the experiment is KCNQ channels. As to the kind of experiment: Thallium flux assay for KCNQ channel openers. The class given is cell-based. Conditions: HEK-293 cells stably transfected with a KCNQ family member; for Min conc. response: minimal active concentration: lowest concentration giving signal >= 4 SD of negative controls; for EC50: thallium flux, 10 point concentration series. The method, then: Thallium Flux Assay for KCNQ Channel Openers.
The thallium assay is a modification of that published by Weaver and is referenced in its entirety (Weaver, C. D. WO 02/31508, 2002).
Approximately 20,000 cells/well of an HEK-293 cell line stably transfected with one of the members of the KCNQ family were plated into clear-bottom, black-walled, poly-D-lysine coated, 384 well assay plates in 20 μl/well of low chloride plating medium. Low chloride plating medium was composed of the following: sodium gluconate, 109 mM; potassium gluconate, 5.4 mM; hemi-calcium gluconate, 3.6 mM; magnesium sulfate, 0.8 mM; sodium bicarbonate, 26.2 mM; sodium phosphate monobasic, 1.2 mM; glutamine, 2 mM; glucose, 5 mM; 4-(2-hydroxyethyl)-1-piperazineethanesulfonic acid (HEPES) (pH 7.3) 10 mM, MEM vitamin solution (10× concentration of vitamins, Gibco/LifeTechnologies 11120-052) and MEM amino acid solution (1× concentration of amino acids, Gibco/LifeTechnologies 11130-051).
Following overnight incubation in a 5% CO2 incubator at 37° C., the cells in the plates were loaded with 20 μl/well of a dye loading solution containing the commercially available thallium-sensitive fluorescent dye BTC-AM, the acetomethoxy ester of BTC (see U.S. Pat. No. 5,501,980) (2 μM) and pluronic acid F-127 (Molecular Probes P 6867) (0.02% w/v) in chloride free assay buffer. Chloride free assay buffer was composed of the following: sodium gluconate, 140 mM; potassium gluconate, 2.5 mM; hemi-calcium gluconate, 6 mM; hemi-magnesium gluconate, 2 mM; glucose, 5 mM; HEPES (pH 7.3), 10 mM.
Following incubation in the dye loading solution for from 45-90 min at room temperature, the dye loading solution was removed by aspiration and replaced with 40 μl/well of chloride free assay buffer.
Prior to addition to cell plates, test compound and standard compounds were dissolved in DMSO to 3 mM concentration. Compounds were then diluted from the 3 mM stock to 100-fold over the final assay concentration in DMSO. Finally, compounds in DMSO were diluted from 100-fold over the final assay concentration to 5-fold over the final assay concentration in chloride free assay buffer.
Ten μl/well of compounds at 5-fold over the final assay concentration were then added to the cell plates. This represents a 1:5 dilution, yielding the final test concentration. The wells used for test compounds were A1-P20. Wells A21-P22 contained a standard opener and a maximally efficacious concentration (positive control). Wells A23-P24 contained chloride free assay buffer containing 1% DMSO (negative control).
Following addition of test compounds, the plates were loaded onto the Molecular Devices FLIPR. The 488 nm line of the argon laser was used to excite the BTC and the emission filter was a 540(+/−30) nm. Images were collected at 1 Hz. Ten seconds of baseline were collected and then the FLIPR was used to add 13 μl/well of a stimulus buffer composed of 7.5 mM Tl2SO4 in chloride free assay buffer. Images were collected for an additional 60 seconds.
For data analysis, the amplitude of the average of the negative controls was subtracted from all wells. The amplitudes of the test compounds were then compared to the value of four standard deviations of the negative control wells. The lowest concentration of a test compound sufficient to generate a signal amplitude greater than or equal to four standard deviations from the amplitude of the negative controls was defined as the minimal active concentration.
For generating EC50 values, compounds were serially diluted in 1:3 volume increments to produce a 10 point concentration series. EC50 values were calculated by fitting the resulting amplitudes to a single-site logistic equation. EC50 was defined as the concentration of test compound required to yield 50% of the maximal response. Maximal response (Maximal opening) was the largest signal amplitude divided by the negative control amplitude generated by any concentration of a test compound. […]

As to `CC(NC(=O)c1sc(CCN2CCCC2)nc1C(F)(F)F)c1cccc(N(C)C)c1` (stereo not drawn) [Example 9, N-[1-[3-(dimethylamino)phenyl]ethyl]-2-[2-(1-pyrrolidinyl)ethyl]-4-(trifluoromethyl)-5-thiazolecarboxamide], the Min conc. response was 10 µM and the EC50 – broadly, the concentration giving half of the maximal effect – lay within 1 to 20 µM.

`CC(NC(=O)c1sc(CCN2CCCC2)nc1C(F)(F)F)c1cccc(C(F)(F)F)c1` (stereo not drawn) [Example 10, 2-[2-(1-pyrrolidinyl)ethyl]-4-(trifluoromethyl)-N-[1-[3-(trifluoromethyl)phenyl]ethyl]-5-thiazolecarboxamide] yielded a Min conc. response of 30 µM and an EC50 of 1 to 20 µM.

With `CC(NC(=O)c1sc(CCN(C)Cc2ccco2)nc1C(F)(F)F)c1cccc(-c2cccnc2)c1` (stereo not drawn) [Example 12, 2-[2-[(2-furanylmethyl)methylamino]ethyl]-N-[1-[3-(3-pyridinyl)phenyl]ethyl]-4-(trifluoromethyl)-5-thiazolecarboxamide], the Min conc. response is 3 µM and the EC50 is less than 0.05 µM.

In turn, `CC(NC(=O)c1sc(CCN2CCCC2)nc1C(F)(F)F)c1cccc(OC(F)(F)F)c1` (stereo not drawn) [Example 13, 2-[2-(1-pyrrolidinyl)ethyl]-4-(trifluoromethyl)-N-[1-[3-(trifluoromethoxy)phenyl]ethyl]-5-thiazolecarboxamide] registered a Min conc. response of 10 µM and an EC50 of 1 to 20 µM.

In turn, `CC(NC(=O)c1sc(CCN(C)Cc2ccco2)nc1C(F)(F)F)c1cccc(OC(F)(F)F)c1` (stereo not drawn) [Example 14, 2-[2-[(2-furanylmethyl)methylamino]ethyl]-4-(trifluoromethyl)-N-[1-[3-(trifluoromethoxy)phenyl]ethyl]-5-thiazolecarboxamide] returned a Min conc. response of 3 µM and a concentration for a half-maximal effect (EC50) of less than 0.05 µM.

The compound `CCN(CC)CCc1nc(C(F)(F)F)c(C(=O)NC(C)c2cccc(N(C)C)c2)s1` (stereo not drawn) [Example 16, 2-[2-(diethylamino)ethyl]-N-[1-[3-(dimethylamino)phenyl]ethyl]-4-(trifluoromethyl)-5-thiazolecarboxamide] returned a Min conc. response of 0.3 µM and an EC50 of 1 to 20 µM.

Consider `CC(NC(=O)c1sc(CCN(C)Cc2ccncc2)nc1C(F)(F)F)c1cccc(C(F)(F)F)c1` (stereo not drawn) [Example 17, 2-[2-[(4-pyridylmethyl)methylamino]ethyl]-4-(trifluoromethyl)-N-[1-[3-(trifluoromethyl)phenyl]ethyl]-5-thiazolecarboxamide], for which the Min conc. response was determined as 3 µM and the EC50 was in the range of 1 to 20 µM.

On to `CC(NC(=O)c1sc(CCN(C)CCN(C)C)nc1C(F)(F)F)c1cccc(OC(F)(F)F)c1` (stereo not drawn) [Example 19], for which the Min conc. response was 3 µM and the EC50 lay within 1 to 20 µM.

Regarding `CC(NC(=O)c1sc(CCN(C)CCN(C)C)nc1C(F)(F)F)c1cccc(C(F)(F)F)c1` (stereo not drawn) [Example 20], the Min conc. response is 30 µM and the half-maximal effective concentration (EC50) lay in the range of 1 to 20 µM.

For `CC(NC(=O)c1sc(CCN2CCN(C)CC2)nc1C(F)(F)F)c1cccc(OC(F)(F)F)c1` (stereo not drawn) [Example 21, 2-[2-(4-methyl-1-piperazinyl)ethyl]-N-[1-[3-(3-trifluoromethoxy)phenyl]ethyl]-4-(trifluoromethyl)-5-thiazolecarboxamide], the Min conc. response was found to be 0.3 µM and the EC50 fell in the range of 1 to 20 µM.

`CC(NC(=O)c1sc(CCN2CCCCC2)nc1C(F)(F)F)c1cccc(OC(F)(F)F)c1` (stereo not drawn) [Example 22, 2-[2-(1-piperidinyl)ethyl]-N-[1-[3-(3-trifluoromethoxy)phenyl]ethyl]-4-(trifluoromethyl)-5-thiazolecarboxamide]: the Min conc. response worked out at 0.3 µM and the half-maximal effective concentration (EC50) lay in the range of 0.05 to 1 µM.

`CC(NC(=O)c1sc(CCN2CCCCC2)nc1C(F)(F)F)c1cccc(N(C)C)c1` (stereo not drawn) [Example 23, N-[1-[3-(dimethylamino)phenyl]ethyl]-2-[2-(1-piperidinyl)ethyl]-4-(trifluoromethyl)-5-thiazolecarboxamide] had a Min conc. response of 0.3 µM and a concentration giving a half-maximal response (EC50) of 1 to 20 µM.

Consider `CC(NC(=O)c1sc(CCN2CCCCC2)nc1C(F)(F)F)c1cccc(C(F)(F)F)c1` (stereo not drawn) [Example 24, 2-[2-(1-piperidinyl)ethyl]-N-[1-[3-(3-trifluoromethyl)phenyl]ethyl]-4-(trifluoromethyl)-5-thiazolecarboxamide], for which the Min conc. response worked out at 0.3 µM and the EC50 is 1 to 20 µM.

For the compound `C[C@H](NC(=O)c1sc(CCN2CCCCC2)nc1C(F)(F)F)c1cccc(N2CCOCC2)c1` [Example 25, N-[1-[3-(4-morpholinyl)phenyl]ethyl]-2-[2-(1-piperidinyl)ethyl]-4-(trifluoromethyl)-5-thiazolecarboxamide], the Min conc. response worked out at 3 µM and the 50% effective concentration (EC50) is 1 to 20 µM.

`CC(NC(=O)c1sc(CCN2CCC(O)CC2)nc1C(F)(F)F)c1cccc(OC(F)(F)F)c1` (stereo not drawn) [Example 26, 2-[2-(4-hydroxy-1-piperidinyl)ethyl]-4-(trifluoromethyl)-N-[1-[3-(trifluoromethoxy)phenyl]ethyl]-5-thiazolecarboxamide] had a Min conc. response of 10 µM and an EC50 of 1 to 20 µM.

Consider `CC(NC(=O)c1sc(CCN2CCC(O)CC2)nc1C(F)(F)F)c1cccc(C(F)(F)F)c1` (stereo not drawn) [Example 27, 2-[2-(4-hydroxy-1-piperidinyl)ethyl]-4-(trifluoromethyl)-N-[1-[3-(trifluoromethyl)phenyl]ethyl]-5-thiazolecarboxamide], for which the Min conc. response was found to be 30 µM and the EC50 lay in the range of 1 to 20 µM.

Take `CCCN(CCc1nc(C(F)(F)F)c(C(=O)NC(C)c2cccc(OC(F)(F)F)c2)s1)CC1CC1` (stereo not drawn) [Example 28, 2-[2-[(cyclopropylmethyl)propylamino]ethyl]-N-[1-[3-(trifluoromethoxy)phenyl]ethyl]-4-(trifluoromethyl)-5-thiazolecarboxamide]: the Min conc. response worked out at 0.3 µM and the EC50 was less than 0.05 µM.

Consider `CCCN(CCc1nc(C(F)(F)F)c(C(=O)NC(C)c2cccc(N(C)C)c2)s1)CC1CC1` (stereo not drawn) [Example 29, 2-[2-[(cyclopropylmethyl)propylamino]ethyl]-N-[1-[3-(dimethylamino)phenyl]ethyl]-4-(trifluoromethyl)-5-thiazolecarboxamide], for which the Min conc. response worked out at 3 µM and the EC50 lay in the range of 1 to 20 µM.

Compound `CCCN(CCc1nc(C(F)(F)F)c(C(=O)NC(C)c2cccc(C(F)(F)F)c2)s1)CC1CC1` (stereo not drawn) [Example 30, 2-[2-[(cyclopropylmethyl)propylamino]ethyl]-N-[1-[3-(trifluoromethyl)phenyl]ethyl]-4-(trifluoromethyl)-5-thiazolecarboxamide] came in with a Min conc. response of 3 µM and an EC50 of less than 0.05 µM.

Compound `CCN(CC)CCc1nc(C(F)(F)F)c(C(=O)N[C@@H](C)c2cccc(-c3cccnc3)c2)s1` [Example 31] registered a Min conc. response of 0.3 µM and an EC50 of 1 to 20 µM.

`C[C@H](NC(=O)c1sc(CCN2CCCCC2)nc1C(F)(F)F)c1cccc(-c2cccnc2)c1` [Example 32, 2-[2-(1-piperidinyl)ethyl]-N-[1-[3-(3-pyridinyl)phenyl]ethyl]-4-(trifluoromethyl)-5-thiazolecarboxamide] showed a Min conc. response of 3 µM and a concentration giving a half-maximal response (EC50) of 1 to 20 µM.
